Bounds are passed on as bounds.

The first series relates to hypothermic effect caused by reserpine. The series is described as follows: reserpine antagonism (reversal of the hypothermic effect caused by reserpine) in mice. The format is in vivo. The settings on record: Mus musculus, oral, 1 hour, reserpine 2 mg/kg i.p. 17 hours before, read-out: Reserpine antagonism, median effective dose (ED50) after 1 hr. The procedure:
The test used for determining antidepressant properties was reserpine antagonism, namely the reversal of the hypothermic effect caused by reserpine. This test was carried out on mice, using five animals per dose. 17 hours after the intraperitoneal administration of 2 mg/kg of reserpine, the peripheral body temperature was measured at an ambient temperature of 19° C. Then, the test compound was administered by the oral route, and the body temperature was measured after 1, 3, 5 and 7 hours had elapsed. A median effective dose (ED50) was determined for each period of measurement. This is the dose at which the body temperature of the animals treated with reserpine is brought closer to the normal temperature of the untreated control animals by 50%.
As to `Cc1ccc(C2CN(C)Cc3sc(CO)cc32)cc1` (stereo not drawn) [2-(Hydroxy-methyl)-6-methyl-4-p-tolyl-4,5,6,7-tetrahydrothieno[2,3-c]pyridine], the ED50 (commonly the dose at which the effect has come halfway, by size or by number of responders) worked out at 2.5 mg/kg.
With `CN1Cc2sc(CN3CCOCC3)cc2C(c2ccc(Br)cc2)C1` (stereo not drawn) [2-(Morpholino-methyl)-4-(p-bromo-phenyl)-6-methyl-4,5,6,7-tetrahydro-thieno[2,3-c]pyridine], the ED50 was 22 mg/kg.
For `CN1Cc2sc(CN3CCOCC3)cc2C(c2ccc(Cl)cc2)C1` (stereo not drawn) [2-(Morpholino-methyl)-4-(p-chloro-phenyl)-6-methyl-4,5,6,7-tetrahydro-thieno[2,3-c]pyridine], the ED50 was > 40 mg/kg.

The same series, now with this note: Mus musculus, oral, 3 hours, reserpine 2 mg/kg i.p. 17 hours before, read-out: Reserpine antagonism, median effective dose (ED50) after 3 hrs.
`Cc1ccc(C2CN(C)Cc3sc(CO)cc32)cc1` (stereo not drawn) [2-(Hydroxy-methyl)-6-methyl-4-p-tolyl-4,5,6,7-tetrahydrothieno[2,3-c]pyridine]: the ED50 is 0.24 mg/kg.
The same measure, in the same setting: the figure for `CN1Cc2sc(CN3CCOCC3)cc2C(c2ccc(Br)cc2)C1` (stereo not drawn) [2-(Morpholino-methyl)-4-(p-bromo-phenyl)-6-methyl-4,5,6,7-tetrahydro-thieno[2,3-c]pyridine] is 1.7 mg/kg; for `CN1Cc2sc(CN3CCOCC3)cc2C(c2ccc(Cl)cc2)C1` (stereo not drawn) [2-(Morpholino-methyl)-4-(p-chloro-phenyl)-6-methyl-4,5,6,7-tetrahydro-thieno[2,3-c]pyridine] it is 2.6 mg/kg.

The same series, now with this note: Mus musculus, oral, 5 hours, reserpine 2 mg/kg i.p. 17 hours before, read-out: Reserpine antagonism, median effective dose (ED50) after 5 hrs.
Take `Cc1ccc(C2CN(C)Cc3sc(CO)cc32)cc1` (stereo not drawn) [2-(Hydroxy-methyl)-6-methyl-4-p-tolyl-4,5,6,7-tetrahydrothieno[2,3-c]pyridine]: the ED50 is 2.5 mg/kg.
Same read-out and setting: then `CN1Cc2sc(CN3CCOCC3)cc2C(c2ccc(Br)cc2)C1` (stereo not drawn) [2-(Morpholino-methyl)-4-(p-bromo-phenyl)-6-methyl-4,5,6,7-tetrahydro-thieno[2,3-c]pyridine], with 1.7 mg/kg.
Still for that read-out and setting: the figure for `CN1Cc2sc(CN3CCOCC3)cc2C(c2ccc(Cl)cc2)C1` (stereo not drawn) [2-(Morpholino-methyl)-4-(p-chloro-phenyl)-6-methyl-4,5,6,7-tetrahydro-thieno[2,3-c]pyridine] is 12 mg/kg.

Staying with this series, now noted: Mus musculus, oral, 7 hours, reserpine 2 mg/kg i.p. 17 hours before, read-out: Reserpine antagonism, median effective dose (ED50) after 7 hrs.
For `Cc1ccc(C2CN(C)Cc3sc(CO)cc32)cc1` (stereo not drawn) [2-(Hydroxy-methyl)-6-methyl-4-p-tolyl-4,5,6,7-tetrahydrothieno[2,3-c]pyridine], the ED50 was > 10 mg/kg.
Still for that read-out and setting: then `CN1Cc2sc(CN3CCOCC3)cc2C(c2ccc(Br)cc2)C1` (stereo not drawn) [2-(Morpholino-methyl)-4-(p-bromo-phenyl)-6-methyl-4,5,6,7-tetrahydro-thieno[2,3-c]pyridine], with 10 mg/kg; and `CN1Cc2sc(CN3CCOCC3)cc2C(c2ccc(Cl)cc2)C1` (stereo not drawn) [2-(Morpholino-methyl)-4-(p-chloro-phenyl)-6-methyl-4,5,6,7-tetrahydro-thieno[2,3-c]pyridine], with 2.5 mg/kg.

Tested on in the next series: not listed separately
As to the kind of experiment: LD50 in the mouse by oral route. The settings on record: in vivo.
With `Cc1ccc(C2CN(C)Cc3sc(CO)cc32)cc1` (stereo not drawn) [2-(Hydroxy-methyl)-6-methyl-4-p-tolyl-4,5,6,7-tetrahydrothieno[2,3-c]pyridine], the LD50 (commonly the dose at which mortality reaches 50%) was ~740 mg/kg.
Take `CN1Cc2sc(CN3CCOCC3)cc2C(c2ccc(Br)cc2)C1` (stereo not drawn) [2-(Morpholino-methyl)-4-(p-bromo-phenyl)-6-methyl-4,5,6,7-tetrahydro-thieno[2,3-c]pyridine]: the 50% lethal dose (LD50) is > 640 mg/kg.
On the same count and under the same terms, then `CN1Cc2sc(CN3CCOCC3)cc2C(c2ccc(Cl)cc2)C1` (stereo not drawn) [2-(Morpholino-methyl)-4-(p-chloro-phenyl)-6-methyl-4,5,6,7-tetrahydro-thieno[2,3-c]pyridine], with > 640 mg/kg.

Source of the values: patent US4482559A, “4-Phenyl-4,5,6,7-tetrahydro-thieno [2,3-c]pyridines, compositions and use” (Boehringer Ingelheim KG, priority 1982, dated 1984).
